Values quoted from earlier work as cited in PubChem BioAssay AID1259409 (Chemical Carcinogenesis Research Information System (CCRIS), 2018).
Where a SMILES comes first, the peptide text is derived from it. The star is where a group is joined. Leuψ(CH2N)ThzNH2 = CC(C)C[C@@H](CN1CSC[C@H]1C(N)=O)N*; Hydrocinnamoyl = O=C(CCc1ccccc1)*

System: rodent chemically induced tumor inhibition, incidence and multiplicity
Assay: CCRIS tumor inhibitor studies
Conditions: Promoter: NONE USED

Q: What does the source list for `CC(C)C[C@@H](CN1CSC[C@H]1C(N)=O)NC(=O)[C@H](Cc1cnc[nH]1)NC(=O)CNC(=O)[C@@H](NC(=O)[C@H](C)NC(=O)[C@H](Cc1c[nH]c2ccccc12)NC(=O)[C@H](CCC(N)=O)NC(=O)CCc1ccccc1)C(C)C` (Hydrocinnamoyl-QWAVGH-{Leuψ(CH2N)ThzNH2})?
A: tumour outcome (control, treated, inhibition, significance) (Carcinogen: N-NITROSOBIS(2-OXOPROPYL)AMINE, 60599-38-4, Dose [Inhibitor]: 0, 20 UG/D FROM OSMOTIC PUMP FOR 2 MO, Route [Inhibitor]: SUBCUTANEOUS IMPLANT, Species: HAMSTER, Strain/Sex: SYRIAN/FEMALE, Target Tissue: Type of Lesion: PANCREAS: ADENOCARCINOMA): 10/11 (91%), 7/11 (64%), 30%, not calculated; tumour outcome (control, treated, inhibition, significance) (Carcinogen: N-NITROSOBIS(2-OXOPROPYL)AMINE, 60599-38-4, Dose [Inhibitor]: 0, 30 UG/D FOR 2 MO, Route [Inhibitor]: SUBCUTANEOUS, Species: HAMSTER, Strain/Sex: SYRIAN/FEMALE, Target Tissue: Type of Lesion: PANCREAS: ADENOCARCINOMA): 11/13 (85%), 12/13 (92%), -8%, not calculated

Q: For `C[C@]12CCC(=O)C=C1CC[C@@H]1[C@@H]2[C@@H](O)C[C@@]2(C)[C@H]1CC[C@]2(O)C(=O)CO`, which “tumour outcome (control, treated, inhibition, significance)” value (Carcinogen: METHYLAZOXYMETHANOL ACETATE, 592-62-1, Dose [Inhibitor]: 7.5 MG/KG BW DAILY FOR 3 WK STARTING 21 WK POST CARCINOGEN TREATMENT (STUDY DURATION: 30 WK), Route [Inhibitor]: INTRARECTAL, Species: RAT, Strain/Sex: DONRYU/MALE, Target Tissue: Type of Lesion: LARGE INTESTINE: ADENOCARCINOMA, Dose [Carcinogen]: 20 MG/KG BW 1/WK FOR 6 WK) is on record?
A: The value was 19/23 (83%), 16/29 (55%), 34%, p<0.05.

Q: And the “tumour outcome (control, treated, inhibition, significance)” value (Carcinogen: METHYLAZOXYMETHANOL ACETATE, 592-62-1, Dose [Inhibitor]: 7.5 MG/KG BW DAILY FOR 3 WK STARTING 21 WK POST CARCINOGEN TREATMENT (STUDY DURATION: 30 WK), Route [Inhibitor]: INTRARECTAL, Species: RAT, Strain/Sex: DONRYU/MALE, Target Tissue: Type of Lesion: SMALL INTESTINE: ADENOCARCINOMA, Dose [Carcinogen]: 20 MG/KG BW 1/WK FOR 6 WK)?
A: The value was 10/23 (43%), 4/29 (14%), 67%, p<0.05.

Q: And the “tumour outcome (control, treated, inhibition, significance)” value (Dose [Inhibitor]: 0, 1.5 MG 2/WK FOR 10 WK (STUDY DURATION: 65 WK), Route [Inhibitor]: INTRAMUSCULAR, Species: RAT, Strain/Sex: F344/MALE, Target Tissue: Type of Lesion: LIVER: HEPATOCELLULAR CARCINOMA, Dose [Carcinogen]: 100 UG 2/WK FOR 10 WK)?
A: Its value is 12/13 (92%), 15/24 (63%), 32%, p<0.05.

Q: What does the source list for `[Cl][Cd][Cl]`?
A: tumour outcome (control, treated, inhibition, significance) (Carcinogen: DIETHYLNITROSAMINE, 55-18-5, Dose [Inhibitor]: 0, 500 PPM IN DRINKING WATER BEGINNING 2 WK POST CARCINOGEN DOSE AND CONTINUING FOR DURATION OF STUDY (STUDY DURATION: 5, Route [Inhibitor]: ORAL, Species: MOUSE, Strain/Sex: B6C3F1/MALE, Target Tissue: Type of Lesion: LIVER: TUMOR, Dose [Carcinogen]: 90 MG/KG IN TRICAPRYLIN (5 MG/ML) ONCE): 13/45 (29%), 3/42 (7%), 76%, p<0.05; tumour outcome (control, treated, inhibition, significance) (Carcinogen: DIETHYLNITROSAMINE, 55-18-5, Dose [Inhibitor]: 0, 500 PPM IN DRINKING WATER BEGINNING 2 WK POST CARCINOGEN DOSE AND CONTINUING FOR DURATION OF STUDY (STUDY DURATION: 5, Route [Inhibitor]: ORAL, Species: MOUSE, Strain/Sex: B6C3F1/MALE, Target Tissue: Type of Lesion: LUNG: TUMOR, Dose [Carcinogen]: 90 MG/KG IN TRICAPRYLIN (5 MG/ML) ONCE): 15/45 (33%), 11/42 (26%), 21%, not calculated; tumour outcome (control, treated, inhibition, significance) (Carcinogen: DIETHYLNITROSAMINE, 55-18-5, Dose [Inhibitor]: 0, 1000 PPM IN DRINKING WATER BEGINNING 2 WK POST CARCINOGEN DOSE AND CONTINUING FOR DURATION OF STUDY (STUDY DURATION:, Route [Inhibitor]: ORAL, Species: MOUSE, Strain/Sex: B6C3F1/MALE, Target Tissue: Type of Lesion: LIVER: TUMOR, Dose [Carcinogen]: 90 MG/KG IN TRICAPRYLIN (5 MG/ML) ONCE): 13/45 (29%), 0/47 (0%), 100%, p<0.05; tumour outcome (control, treated, inhibition, significance) (Carcinogen: DIETHYLNITROSAMINE, 55-18-5, Dose [Inhibitor]: 0, 1000 PPM IN DRINKING WATER BEGINNING 2 WK POST CARCINOGEN DOSE AND CONTINUING FOR DURATION OF STUDY (STUDY DURATION:, Route [Inhibitor]: ORAL, Species: MOUSE, Strain/Sex: B6C3F1/MALE, Target Tissue: Type of Lesion: LUNG: TUMOR, Dose [Carcinogen]: 90 MG/KG IN TRICAPRYLIN (5 MG/ML) ONCE): 15/45 (33%), 1/47 (2%), 94%, p<0.05

Q: Which results are given for `COc1cc(OC)c2ccc(=O)oc2c1`?
A: tumour outcome (control, treated, inhibition, significance) (Carcinogen: 7,12-DIMETHYLBENZ(A)ANTHRACENE, 57-97-6, Dose [Inhibitor]: 0.068 MMOL/G IN DIET FOR 8 D BEGINNING 7 D PRIOR TO CARCINOGEN DOSE (STUDY DURATION: 23 WK), Route [Inhibitor]: ORAL, Species: RAT, Strain/Sex: SPRAGUE-DAWLEY/FEMALE, Target Tissue: Type of Lesion: MAMMARY GLAND: TUMOR, Dose [Carcinogen]: 12 MG IN 1.0 ML OLIVE OIL ONCE ON D 7 OF EXPERIMENT): 85%, 38%, 55%, p<0.05; tumour outcome (control, treated, inhibition, significance) (Carcinogen: BENZO[A]PYRENE, 50-32-8, Dose [Inhibitor]: 0.034 MMOL/G IN DIET BEGINNING 1 WK PRIOR TO FIRST CARCINOGEN DOSE AND CONTINUING FOR 3 D POST LAST CARCINOGEN DOSE FOR, Route [Inhibitor]: ORAL, Species: MOUSE, Strain/Sex: ICR/FEMALE, Target Tissue: Type of Lesion: FORESTOMACH: TUMOR, Dose [Carcinogen]: 1 MG IN 0.2 ML CORN OIL 2/WK FOR 4 WK): 100%, 94%, 6%, not significant

Q: Which “tumour outcome (control, treated, inhibition, significance)” value (Carcinogen: 7,12-DIMETHYLBENZ[A]ANTHRACENE, 57-97-6, Dose [Inhibitor]: 0, 0.000025 MOL/KG DIET BEGINNING 2 WK PRIOR TO CARCINOGEN AND CONTINUED FOR STUDY DURATION (STUDY DURATION: 25 WK), Route [Inhibitor]: ORAL, Species: RAT, Strain/Sex: CD-1/FEMALE, Target Tissue: Type of Lesion: MAMMARY GLAND: ADENOCARCINOMA, Dose [Carcinogen]: 10 MG ONCE) does the source give for `C[Se+](C)CC(=O)[O-]` here?
A: Its value is 20/25 (80%), 11/25 (44%), 45%, p<0.05.

Q: Which “tumour outcome (control, treated, inhibition, significance)” value (Carcinogen: BENZO[A]PYRENE, 50-32-8, Dose [Inhibitor]: 0, 3.3 UMOL/G DIET BEGINNING 1 WK PRIOR TO CARCINOGEN TREATMENT AND CONTINUING FOR 1 WK POST CARCINOGEN TREATMENT FOLLOW, Route [Inhibitor]: ORAL, Species: MOUSE, Strain/Sex: CD-1/FEMALE, Target Tissue: Type of Lesion: FORESTOMACH: PAPILLOMA, Dose [Carcinogen]: 1 MG IN 0.2 ML CORN OIL 2/WK FOR 4 WK) does the source give for `COc1ccc([SeH])cc1` here?
A: The value was 85%, 75%, 12%, not significant.

Q: With `S=C=NCCCCCc1ccccc1` as the compound, how does the “tumour outcome (control, treated, inhibition, significance)” value (Carcinogen: 4-(METHYLNITROSAMINO)-1-(3-PYRIDYL)-1-BUTANONE, 64091-91-4, Dose [Inhibitor]: 0, 0.2 UMOL 1/D FOR 4 D ADMINISTERED PRIOR TO CARCINOGEN TREATMENT (STUDY DURATION: 116 D), Route [Inhibitor]: GAVAGE, Species: MOUSE, Strain/Sex: STRAIN A, Target Tissue: Type of Lesion: LUNG: ADENOMA, Dose [Carcinogen]: 10 UMOL ONCE 2 HR AFTER FINAL DOSE OF INHIBITOR) read?
A: The value was 100%, 100%, 0%, not significant.

Q: And the “tumour outcome (control, treated, inhibition, significance)” value (Carcinogen: 4-(METHYLNITROSAMINO)-1-(3-PYRIDYL)-1-BUTANONE, 64091-91-4, Dose [Inhibitor]: 0, 1 UMOL 1/D FOR 4 D ADMINISTERED PRIOR TO CARCINOGEN TREATMENT (STUDY DURATION:116 D), Route [Inhibitor]: GAVAGE, Species: MOUSE, Strain/Sex: STRAIN A, Target Tissue: Type of Lesion: LUNG: ADENOMA, Dose [Carcinogen]: 10 UMOL ONCE 2 HR AFTER FINAL DOSE OF INHIBITOR)?
A: Its value is 100%, 53%, 47%, p<0.05.

Q: And the “tumour outcome (control, treated, inhibition, significance)” value (Carcinogen: 4-(METHYLNITROSAMINO)-1-(3-PYRIDYL)-1-BUTANONE, 64091-91-4, Dose [Inhibitor]: 0, 5 UMOL 1/D FOR 4 D ADMINISTERED PRIOR TO CARCINOGEN TREATMENT (STUDY DURATION: 116 D), Route [Inhibitor]: GAVAGE, Species: MOUSE, Strain/Sex: STRAIN A, Target Tissue: Type of Lesion: LUNG: ADENOMA, Dose [Carcinogen]: 10 UMOL ONCE 2 HR AFTER FINAL DOSE OF INHIBITOR)?
A: Its value is 100%, 25%, 75%, p<0.05.
